{"source": "patent US6706663B2", "about": "“Herbicidal 3-heterocyclic substituted benzisothiazole and benzisoxazole compounds” (Wyeth, priority 2000, dated 2004)", "key": {"[1]": {"system": "SAGPY (Sagittaria pygmaea)", "experiment": "Flooded paddy, preemergence weed control", "assay_type": "in vivo, L.", "conditions": "rated 3-4 weeks after treatment, 0-9 rating scale", "method_in_brief": "(§1)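 Seeds or propagating organs were sown in the top 0.5 cm of silt loam soil, flooded, and the water kept 1.5 to 3 cm above the soil surface throughout. Plants were grown in the greenhouse and rated visually on a 0-9 scale against a control.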"}, "[2]": {"system": "IPOHE (Ipomoea hederacea)", "experiment": "Preemergence herbicidal evaluation", "assay_type": "in vivo, (L.) Jacq.", "conditions": "preemergence, rated 4-5 weeks after treatment"}, "ZEAMX (Corn, Field) [3]": {"system": "ZEAMX (Corn, Field)", "experiment": "Preemergence herbicidal evaluation", "assay_type": "in vivo, Zea mays, L.", "conditions": "preemergence, rated 4-5 weeks after treatment"}, "[4]": {"system": "GLXMAW (Soybean, Williams)", "experiment": "Postemergence herbicidal evaluation", "assay_type": "in vivo, Glycine max, (L.) Merr. cv Williams", "method_in_brief": "(§2)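 Visual 0–9 injury scores versus control plants, covering stand, vigour, malformation, size, chlorosis and general appearance, taken four to five weeks post-spray and averaged over replicate tests. Plants were sprayed at roughly two weeks old and held on greenhouse benches.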"}, "ORYSAT (Rice, Tebonnet)": {"system": "ORYSAT (Rice, Tebonnet)", "experiment": "Preemergence herbicidal evaluation", "assay_type": "in vivo, Oryza sativa, (L.) Tebonnet", "conditions": "preemergence, rated 4-5 weeks after treatment"}, "[5]": {"system": "ECHCG (Echinochloa crus-galli)", "experiment": "Postemergence herbicidal evaluation", "assay_type": "in vivo, (L.) Beau", "method_in_brief": "as §2"}, "GALAP (Galium aparine) [6]": {"system": "GALAP (Galium aparine)", "experiment": "Postemergence herbicidal evaluation", "assay_type": "in vivo", "method_in_brief": "as §2"}, "[7]": {"system": "GLXMAW (Soybean, Williams)", "experiment": "Preemergence herbicidal evaluation", "assay_type": "in vivo, Glycine max, (L.) Merr. cv Williams", "conditions": "preemergence, rated 4-5 weeks after treatment"}, "[8]": {"system": "IPOHE (Ipomoea hederacea)", "experiment": "Postemergence herbicidal evaluation", "assay_type": "in vivo, (L.) Jacq.", "method_in_brief": "as §2"}, "[9]": {"system": "ABUTH (Abutilon theophrasti)", "experiment": "Postemergence herbicidal evaluation", "assay_type": "in vivo, Medic.", "method_in_brief": "as §2"}, "[10]": {"system": "TRZAWR (Wheat, Winter, cv Riband)", "experiment": "Preemergence herbicidal evaluation", "assay_type": "in vivo, Triticum aestivum", "conditions": "preemergence, rated 4-5 weeks after treatment", "method_in_brief": "(§3)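 Visual 0-9 rating versus untreated control, taken four to five weeks post-treatment, scoring stand, vigor, malformation, size, chlorosis and overall appearance. Compound applied as aqueous acetone spray to freshly seeded soil cups, then kept under standard greenhouse care.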"}, "[11]": {"system": "CHEAL (Chenopodium album)", "experiment": "Preemergence herbicidal evaluation", "assay_type": "in vivo, L.", "conditions": "preemergence, rated 4-5 weeks after treatment", "method_in_brief": "as §3"}, "[12]": {"system": "AMBEL (Ambrosia artemisifolia)", "experiment": "Preemergence herbicidal evaluation", "assay_type": "in vivo, L.", "conditions": "preemergence, rated 4-5 weeks after treatment", "method_in_brief": "as §3"}, "[13]": {"system": "CASOB (Cassia obtusifolia)", "experiment": "Preemergence herbicidal evaluation", "assay_type": "in vivo, L.", "conditions": "preemergence, rated 4-5 weeks after treatment", "method_in_brief": "as §3"}, "CYPIR (Cyperus iria)": {"system": "CYPIR (Cyperus iria)", "experiment": "Flooded paddy, preemergence weed control", "assay_type": "in vivo", "conditions": "rated 3-4 weeks after treatment, 0-9 rating scale", "method_in_brief": "as §1"}, "[14]": {"system": "ECHORC (Echinochloa oryzoides)", "experiment": "Flooded paddy, preemergence weed control", "assay_type": "in vivo, Echinochloa oryzoides (Ard.) Fritsch.", "conditions": "rated 3-4 weeks after treatment, 0-9 rating scale", "method_in_brief": "as §1"}, "[15]": {"system": "CHEAL (Chenopodium album)", "experiment": "Postemergence herbicidal evaluation", "assay_type": "in vivo, L.", "method_in_brief": "as §2"}, "[16]": {"system": "AMBEL (Ambrosia artemisifolia)", "experiment": "Postemergence herbicidal evaluation", "assay_type": "in vivo, L.", "method_in_brief": "as §2"}, "[17]": {"system": "CASOB (Cassia obtusifolia)", "experiment": "Postemergence herbicidal evaluation", "assay_type": "in vivo, L.", "method_in_brief": "as §2"}, "[18]": {"system": "CYPSE (Cyperus serotinus)", "experiment": "Flooded paddy, preemergence weed control", "assay_type": "in vivo, Rottb.", "conditions": "rated 3-4 weeks after treatment, 0-9 rating scale", "method_in_brief": "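Herbicidal effect was scored visually on a 0–9 scale against an untreated control 3–4 weeks after treatment. Compounds were applied preemergence as 50/50 v/v aqueous/acetone mixtures into flood water (1.5–3 cm deep over silt loam), at roughly 0.0080 to 0.1250 kg/ha active ingredient.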"}, "GALAP (Galium aparine) [19]": {"system": "GALAP (Galium aparine)", "experiment": "Preemergence herbicidal evaluation", "assay_type": "in vivo", "conditions": "preemergence, rated 4-5 weeks after treatment", "method_in_brief": "as §3"}, "ZEAMX (Corn, Field) [20]": {"system": "ZEAMX (Corn, Field)", "experiment": "Postemergence herbicidal evaluation", "assay_type": "in vivo, Zea mays, L.", "method_in_brief": "as §2"}}, "data": [{"smiles": "COc1ccsc1-c1nsc2ccc(-n3c(=O)cc(C(F)(F)F)n(C)c3=O)cc12", "note": "[Compound 10, 3-[3-(3-methoxy-2-thienyl)-1,2-benzisothiazol-5-yl]-1-methyl-6-(trifluoromethyl)uracil]", "values": [{"measurement": "herbicidal rating, SAGPY", "setting": "[1]; rate 0.0320 kg/ha", "result": 0.0}, {"measurement": "herbicidal rating, SAGPY", "setting": "[1]; rate 0.1250 kg/ha", "result": 0.0}, {"measurement": "IPOHE preemergence herbicidal rating", "setting": "[2]; Rate 0.0620 kg/ha", "result": 0.5}, {"measurement": "IPOHE preemergence herbicidal rating", "setting": "[2]; Rate 0.1250 kg/ha", "result": 0.5}, {"measurement": "IPOHE preemergence herbicidal rating", "setting": "[2]; Rate 0.2500 kg/ha", "result": 2.0}, {"measurement": "ZEAMX preemergence herbicidal rating", "setting": "ZEAMX (Corn, Field) [3]; Rate 0.0620 kg/ha", "result": 4.0}, {"measurement": "ZEAMX preemergence herbicidal rating", "setting": "ZEAMX (Corn, Field) [3]; Rate 0.1250 kg/ha", "result": 6.5}, {"measurement": "ZEAMX preemergence herbicidal rating", "setting": "ZEAMX (Corn, Field) [3]; Rate 0.2500 kg/ha", "result": 7.0}, {"measurement": "Postemergence herbicidal rating, GLXMAW", "setting": "[4]; rate 0.0320 kg/ha", "result": 4.8}, {"measurement": "Postemergence herbicidal rating, GLXMAW", "setting": "[4]; rate 0.0620 kg/ha", "result": 5.0}, {"measurement": "Postemergence herbicidal rating, GLXMAW", "setting": "[4]; rate 0.1250 kg/ha", "result": 6.0}, {"measurement": "ORYSAT preemergence herbicidal rating", "setting": "ORYSAT (Rice, Tebonnet); Rate 0.0620 kg/ha", "result": 1.0}, {"measurement": "ORYSAT preemergence herbicidal rating", "setting": "ORYSAT (Rice, Tebonnet); Rate 0.1250 kg/ha", "result": 3.0}, {"measurement": "ORYSAT preemergence herbicidal rating", "setting": "ORYSAT (Rice, Tebonnet); Rate 0.2500 kg/ha", "result": 7.0}, {"measurement": "Postemergence herbicidal rating, ECHCG", "setting": "[5]; rate 0.0320 kg/ha", "result": 0.0}, {"measurement": "Postemergence herbicidal rating, ECHCG", "setting": "[5]; rate 0.0620 kg/ha", "result": 0.0}, {"measurement": "Postemergence herbicidal rating, ECHCG", "setting": "[5]; rate 0.1250 kg/ha", "result": 0.0}, {"measurement": "Postemergence herbicidal rating, GALAP", "setting": "GALAP (Galium aparine) [6]; rate 0.0320 kg/ha", "result": 1.0}, {"measurement": "Postemergence herbicidal rating, GALAP", "setting": "GALAP (Galium aparine) [6]; rate 0.0620 kg/ha", "result": 1.0}, {"measurement": "Postemergence herbicidal rating, GALAP", "setting": "GALAP (Galium aparine) [6]; rate 0.1250 kg/ha", "result": 9.0}, {"measurement": "GLXMAW preemergence herbicidal rating", "setting": "[7]; Rate 0.0620 kg/ha", "result": 0.5}, {"measurement": "GLXMAW preemergence herbicidal rating", "setting": "[7]; Rate 0.1250 kg/ha", "result": 1.0}, {"measurement": "GLXMAW preemergence herbicidal rating", "setting": "[7]; Rate 0.2500 kg/ha", "result": 2.5}, {"measurement": "Postemergence herbicidal rating, IPOHE", "setting": "[8]; rate 0.0320 kg/ha", "result": 2.0}, {"measurement": "Postemergence herbicidal rating, IPOHE", "setting": "[8]; rate 0.0620 kg/ha", "result": 2.0}, {"measurement": "Postemergence herbicidal rating, IPOHE", "setting": "[8]; rate 0.1250 kg/ha", "result": 7.0}, {"measurement": "Postemergence herbicidal rating, ABUTH", "setting": "[9]; rate 0.0320 kg/ha", "result": 8.0}, {"measurement": "Postemergence herbicidal rating, ABUTH", "setting": "[9]; rate 0.0620 kg/ha", "result": 8.0}, {"measurement": "Postemergence herbicidal rating, ABUTH", "setting": "[9]; rate 0.1250 kg/ha", "result": 9.0}, {"measurement": "TRZAWR preemergence herbicidal rating", "setting": "[10]; Rate 0.0620 kg/ha", "result": 1.5}, {"measurement": "TRZAWR preemergence herbicidal rating", "setting": "[10]; Rate 0.1250 kg/ha", "result": 4.5}, {"measurement": "TRZAWR preemergence herbicidal rating", "setting": "[10]; Rate 0.2500 kg/ha", "result": 7.0}, {"measurement": "CHEAL preemergence herbicidal rating", "setting": "[11]; Rate 0.0620 kg/ha", "result": 8.0}, {"measurement": "CHEAL preemergence herbicidal rating", "setting": "[11]; Rate 0.1250 kg/ha", "result": 9.0}, {"measurement": "CHEAL preemergence herbicidal rating", "setting": "[11]; Rate 0.2500 kg/ha", "result": 9.0}, {"measurement": "AMBEL preemergence herbicidal rating", "setting": "[12]; Rate 0.0620 kg/ha", "result": 4.0}, {"measurement": "AMBEL preemergence herbicidal rating", "setting": "[12]; Rate 0.1250 kg/ha", "result": 6.0}, {"measurement": "AMBEL preemergence herbicidal rating", "setting": "[12]; Rate 0.2500 kg/ha", "result": 7.0}, {"measurement": "CASOB preemergence herbicidal rating", "setting": "[13]; Rate 0.0620 kg/ha", "result": 0.5}, {"measurement": "CASOB preemergence herbicidal rating", "setting": "[13]; Rate 0.1250 kg/ha", "result": 1.0}, {"measurement": "CASOB preemergence herbicidal rating", "setting": "[13]; Rate 0.2500 kg/ha", "result": 1.0}, {"measurement": "herbicidal rating, CYPIR", "setting": "CYPIR (Cyperus iria); rate 0.0320 kg/ha", "result": 4.0}, {"measurement": "herbicidal rating, CYPIR", "setting": "CYPIR (Cyperus iria); rate 0.1250 kg/ha", "result": 9.0}, {"measurement": "herbicidal rating, ECHORC", "setting": "[14]; rate 0.0320 kg/ha", "result": 0.0}, {"measurement": "herbicidal rating, ECHORC", "setting": "[14]; rate 0.1250 kg/ha", "result": 5.0}, {"measurement": "Postemergence herbicidal rating, CHEAL", "setting": "[15]; rate 0.0320 kg/ha", "result": 1.0}, {"measurement": "Postemergence herbicidal rating, CHEAL", "setting": "[15]; rate 0.0620 kg/ha", "result": 1.0}, {"measurement": "Postemergence herbicidal rating, CHEAL", "setting": "[15]; rate 0.1250 kg/ha", "result": 4.0}, {"measurement": "Postemergence herbicidal rating, AMBEL", "setting": "[16]; rate 0.0320 kg/ha", "result": 2.0}, {"measurement": "Postemergence herbicidal rating, AMBEL", "setting": "[16]; rate 0.0620 kg/ha", "result": 3.0}, {"measurement": "Postemergence herbicidal rating, AMBEL", "setting": "[16]; rate 0.1250 kg/ha", "result": 9.0}, {"measurement": "Postemergence herbicidal rating, CASOB", "setting": "[17]; rate 0.0320 kg/ha", "result": 0.0}, {"measurement": "Postemergence herbicidal rating, CASOB", "setting": "[17]; rate 0.0620 kg/ha", "result": 0.0}, {"measurement": "Postemergence herbicidal rating, CASOB", "setting": "[17]; rate 0.1250 kg/ha", "result": 1.0}, {"measurement": "herbicidal rating, CYPSE", "setting": "[18]; rate 0.0320 kg/ha", "result": 0.0}, {"measurement": "herbicidal rating, CYPSE", "setting": "[18]; rate 0.1250 kg/ha", "result": 0.0}, {"measurement": "GALAP preemergence herbicidal rating", "setting": "GALAP (Galium aparine) [19]; Rate 0.0620 kg/ha", "result": 5.0}, {"measurement": "GALAP preemergence herbicidal rating", "setting": "GALAP (Galium aparine) [19]; Rate 0.1250 kg/ha", "result": 8.5}, {"measurement": "GALAP preemergence herbicidal rating", "setting": "GALAP (Galium aparine) [19]; Rate 0.2500 kg/ha", "result": 8.0}, {"measurement": "Postemergence herbicidal rating, ZEAMX", "setting": "ZEAMX (Corn, Field) [20]; rate 0.0320 kg/ha", "result": 3.8}, {"measurement": "Postemergence herbicidal rating, ZEAMX", "setting": "ZEAMX (Corn, Field) [20]; rate 0.0620 kg/ha", "result": 5.0}, {"measurement": "Postemergence herbicidal rating, ZEAMX", "setting": "ZEAMX (Corn, Field) [20]; rate 0.1250 kg/ha", "result": 5.0}]}]}
